Reference: US20170240864A1, “METHODS TO GENERATE PANCREATIC BETA CELLS FROM SKIN CELLS” (UNIVERSITY OF IOWA RESEARCH FOUNDATION, priority 2016, published 2017)
Entries after “also recorded” stand apart in the source; their conditions may differ.

Legend:
ND iPS cells [1] = experiment: Insulin flow cytometry at end of Stage 5, ND cultures; type: cell-based, human
Protocol: (§1) FIGS. 18A-18B. […] To address whether demethylation enhances the yield of Pdx1+ cells and insulin+ cells from ND iPS cells, in parallel, differentiations of ND iPS cells, treated with or without 10 nM 5-aza-DC for 18 h on day 4 of differentiation (n=2) were established. Controls for staining were iPS cells (negative) and βTC3 mouse insulinoma cells (positive). […] Thus, demethylation enhances the differentiation into IPCs of specifically T1D iPS cells but not ND iPS cells. This is likely because there are specific gene loci on T1D cells that are aberrantly methylated, which is corrected by transient 5-aza-DC treatment.
(§2) For assessment of expression of pancreatic hormones insulin and glucagon, matrigel-seeded differentiating cell clusters on differentiation D27 (end of stage 5) were recovered by treatment with Dispase (Catalog Number: 354235, BD Biosciences, San Jose, Calif.) for 5 minutes at 37° C., followed by gentle suspension to further break down the matrigel. After washing with 1×PBS and centrifugation, the cell clusters were incubated with TrypLE Express for 5-10 minutes at room temperature. Following gentle resuspension and centrifugation, the cells were permeabilized via saponin using the BD Cytofix/Cytoperm Kit (Catalog Number: 554714, BD Biosciences, San Jose, Calif.). […]

[2] = test system: 5-methylcytosine content of gDNA of T1D iPS cells; experiment: Dot blot for 5-methylcytosine on gDNA; type: cell-based, human
Protocol: FIGS. 14A-14B. Selection of the optimal dose of 5-aza-DC to demethylate iPS cells while ensuring maximal cell viability. FIG. 14A) Every cell type has a unique tolerance to 5-aza-DC, which is toxic at high doses. In order to identify an optimal dose of 5-aza-DC that would maintain integrity of the cells while demethylating effectively, a dose screen experiment was conducted on T1D iPS cells (n=2), observing the quality of the colonies and degree of cell death over 4 days after 18 hours of treatment with various doses of 5-aza-DC. […] FIG. 14B) To confirm that those low doses would still demethylate cells, a dot blot for 5-methylcytosine was performed on gDNA isolated from untreated T1D iPS cells or iPS cells that were treated with 1 nM or 10 nM 5-aza-DC (n=3).
To detect the effectiveness of demethylation treatment, dot blots were performed on genomic DNA (gDNA) samples isolated from demethylated and nondemethylated control iPS cells to determine levels of 5-methylcytosine (5-MC). gDNA was isolated using the DNeasy Blood & Tissue Kit (Qiagen, Valencia, Calif.). […] Finally, HRP signal was detected with a 5 minute incubation at room temperature in Amersham ECL Prime solution (Catalog Number: RPN2232, GE Healthcare, Pittsburgh, Pa.) and processed via X-ray films.

[3] = test system: T1D iPS cell-derived cell clusters; experiment: Cluster morphology and dithizone staining of T1D IPC cultures; type: cell-based, human
Protocol: Freshly prepared dithizone solution was used for all experiments. First, 20 mg of dithizone (Catalog Number: D5130, Sigma-Aldrich, St. Louis, Mo.) was added to 0.6 mL of 95% ethanol in a 15 mL conical tube. Subsequently, 1-5 drops of ammonium hydroxide was added and the resulting orange stock mixture was vortexed thoroughly until completely dissolved. 0.3 mL of this stock solution was dispensed in 99.7 mL of 1×PBS and the pH was adjusted to 7.4 with 1N HCl. Islets (supplied by the IIDP) or picked IPC clusters were added to separate wells each containing 200 μL of the final dithizone solution in a 96 well plate. The cell clusters were incubated for 2-5 minutes before images were captured using a standard light microscope (Nikon Eclipse, TS100) attached to a color camera.
A full differentiation of T1D iPS cells into IPCs was initiated, demethylating the DE cells on day 4 for 18 hours before transferring them onto matrigel. A striking impact of the demethylation treatment in the T1D cultures was observed. Typically, T1D iPS cells gave rise to a disorganized mix of cysts and spheroids, with a dominant presence of hollow cysts. […] Next, these cell clusters were stained with dithizone, which when positive points to the presence of insulin Shiroi et al., 2002).

ND iPS cells [4] = experiment: Pdx1 flow cytometry, ND cultures; type: cell-based, human; details: 10 nM for 18 h on day 4
Protocol: as §1
as §2, with “transcription factors (Pdx1, Nkx6.1” for “hormones insulin”, “NeuroD1),” for “glucagon,”, “D15” for “D27”, “4)” for “5)”, “permeabilized” for “permeabilized via saponin”, “methanol as described below.” for “the BD Cytofix/Cytoperm Kit (Catalog Number: 554714, BD Biosciences, San Jose, Calif.).”

[5] = test system: T1D DE cells (T1D iPS cell-derived); experiment: Pdx1 flow cytometry at end of Stage 4, T1D cultures; type: cell-based, human; details: T1D DE cells demethylated on day 4 for 18 h
Protocol: (§3) After completing 4 days of differentiation in DE differentiation media, the cells were treated with fresh media supplemented with 5-aza-DC. The 5-aza-DC was treated for 18 hours, which spanned the last day of DE differentiation, before being washed with warm DMEM F/12 three times and harvested as described in the next section for initiating 3D differentiation into pancreatic precursor cells.
For assessment of expression of pancreatic transcription factors (Pdx1, Nkx6.1 and NeuroD1), matrigel-seeded differentiating cell clusters on differentiation D15 (end of stage 4) were recovered by treatment with Dispase (Catalog Number: 354235, BD Biosciences, San Jose, Calif.) for 5 minutes at 37° C., followed by gentle suspension to further break down the matrigel. After washing with 1×PBS and centrifugation, the cell clusters were incubated with TrypLE Express for 5-10 minutes at room temperature. Following gentle resuspension and centrifugation, the cells were permeabilized using methanol as described below. The cells were fixed in 2% paraformaldehyde in PBS for 10 minutes at 37° C., followed by centrifugation, and resuspension of the vortexed cells in 1 mL of chilled Perm Buffer III (Catalog Number: 558050, BD Biosciences, San Jose, Calif.). The cells were incubated for 30 minutes on ice in sealed tubes. […]

[6] = test system: T1D DE cells (T1D iPS cell-derived); experiment: Insulin and glucagon flow cytometry at end of Stage 5, T1D cultures; type: cell-based, human; details: for number of glucagon-expressing cells: T1D cultures, concentration-dependent
Protocol: as §3
For assessment of expression of pancreatic hormones insulin and glucagon, matrigel-seeded differentiating cell clusters on differentiation D27 (end of stage 5) were recovered by treatment with Dispase (Catalog Number: 354235, BD Biosciences, San Jose, Calif.) for 5 minutes at 37° C., followed by gentle suspension to further break down the matrigel. After washing with 1×PBS and centrifugation, the cell clusters were incubated with TrypLE Express for 5-10 minutes at room temperature. Following gentle resuspension and centrifugation, the cells were permeabilized via saponin using the BD Cytofix/Cytoperm Kit (Catalog Number: 554714, BD Biosciences, San Jose, Calif.). For insulin staining, the cells were incubated with anti-inulin-PE for 30 minutes in the dark at room temperature before being washed and resuspended in 1×PBS for flow cytometric analysis. For glucagon staining, the cells were incubated with purified rabbit anti-human glucagon for 30 minutes in the dark at room temperature before being washed and incubated with anti-rabbit APC (1:100) for an additional 30 minutes in the dark at room temperature. Subsequently, the cells were washed and resuspended in 1×PBS for flow cytometric analysis.

[7] = test system: T1D iPS cells differentiating into DE cells; experiment: Definitive endoderm marker flow cytometry after demethylation (CXCR4, Sox17, PDGFR-α); type: cell-based, human
Description: FIG. 15. Demethylation on DO of differentiation arrests cells in a CXCR4+ PDGFRα+ Sox17− mesendodermal state. In order to identify the optimal time point at which demethylation should be initiated, two parallel differentiations of T1D iPS cells into DE cells were established. In one differentiation, the culture was exposed to 5-aza-DC on day 0 (which is the day that DE differentiation is initiated), whereas the other culture was demethylated at day 4 of differentiation (which is the last day of DE culture). At the end of the differentiations, the efficacy of DE cell differentiation was determined by studying the expression of CXCR4, PDGFR-α, and Sox17. Undifferentiated iPS cells (red plot) served as a negative control for all of these cell markers. […] In contrast, demethylation of the cells on day 4 (blue plot) generated >90% CXCR4+ Sox17+ PDGFR-α− cells, representing true DE cells. […] Besides, after formation of the DE, the cells have a higher proliferative rate. Thus, temporal control of the demethylation treatment ensures enhanced differentiation outcomes.
as §3
For assessment of DE differentiation efficiency, cells from D5 of differentiation (end of stage 1) were incubated at room temperature for 2-5 minutes with TrypLE Express (Invitrogen, Grand Island, N.Y.), dissociated into a single cell suspension, filtered through a 70 μm mesh and washed with 1×PBS (Invitrogen, Grand Island, N.Y.) before being distributed into FACS tubes. […]

[8] = test system: Human iPS cell-derived IPCs; experiment: Mitochondria stress test (oxygen consumption rate); type: cell-based; details: low glucose (2.8 mM)
Protocol: Oxygen consumption rate (OCR) was measured by using an intact-cell respirometer designed for adherent cells (Seahorse Bioscience, North Billerica, Mass.). Human iPS cell-derived IPCs were grown in special 24-well plates designed for respirometer analyses. OCR was determined in assay medium consisting of medium M199 lacking sodium bicarbonate for 60 minutes. Before analysis, IPCs within individual wells were exposed to either, low glucose (2.8 mM), high glucose (20 mM), high glucose (20 mM)+Nifedipine. […] The FCCP concentration used in these studies was determined by titration with differing amounts of the uncoupler by using the least amount required for maximal uncoupling in cells unexposed to MTQAs. OCR (pmol per minute per microgram of DNA) was determined as the average number recorded during time periods defined as intervals between the above sequential injections. Basal OCR was determined as respiration before injection of any compounds minus non-mitochondrial OCR. OCRATP was determined as basal OCR minus OCR after oligomycin injection. OCR accountable by the proton leak was calculated as OCR in the presence of oligomycin minus non-mitochondrial OCR. Maximal uncoupled respiration was calculated as OCR after FCCP minus non-mitochondrial OCR. […] ECAR was quantified simply as the recorded acidification rate during the respiratory conditions delineated above.

[9] = demethylation on day 4 of differentiation

| SMILES | yield of insulin-expressing cells, treated versus untreated (ND iPS cells [1]; 10 nM for 18 h on day 4) | yield of Insulin+ cells at the end of Stage 5 (ND iPS cells [1]; unchanged after treatment) | demethylation (5-methylcytosine dot blot) ([2]; 1 nM) | demethylation (5-methylcytosine dot blot) ([2]; 10 nM) | cluster morphology ([3]; T1D DE cells treated on day 4, both doses (1 nM, 10 nM)) | dithizone staining of clusters ([3]; T1D cultures treated with 5-aza-DC) | yield of Pdx1+ cells, treated versus untreated (ND iPS cells [4]) | Pdx1+ cells at the end of Stage 4 [5] | insulin-expressing cells ([6]; T1D cultures treated with 5-Aza-DC, n=5) | number of glucagon-expressing cells [6] | number of glucagon-expressing cells ([6]; listed as 5-Aza-DC) | insulin+ cells, highest measured in some cultures ([6]; T1D, 10 nM, repeated experiments) | cells expressing insulin ([6]; T1D, dose of 10 nM) | augmentation of yield of IPCs versus untreated ([6]; T1D-1 DE cells, pooled experiments, untreated n=3, demethylated n=5) | marker phenotype of resulting cells ([7]; demethylation on day 0 of differentiation) | CXCR4+ Sox17+ PDGFR-α− cells [7, 9] | marker phenotype of resulting cells [7, 9] | effect on oxygen consumption [8] |
| --- | --- | --- | --- | --- | --- | --- | --- | --- | --- | --- | --- | --- | --- | --- | --- | --- | --- | --- |
| Nc1ncn([C@H]2C[C@H](O)[C@@H](CO)O2)c(=O)n1 [5-aza-DC, 5-aza-2′-deoxycytidine] | equivalent yield | 25% | effectively demethylate | effectively demethylate | promoted the formation of compact cell clusters that uniquely resembled human islets; also recorded: promotes the formation of compact clusters | strong red color | not significantly different | > 95% | 56.7-59.4% | nearly all the glucagon secreting cells are gone | drastic decline | ≤ 65% | 56% | ~4 fold | arrested in the immature CXCR4^+ PDGFRα^+ Sox17^− mesendodermal state; also recorded: CXCR4+ PDGFR-α+ Sox17− | > 90% | pure population of CXCR4^+ Sox17^+ PDGFRα^− DE cells | – |
| CC(C)Cn1c(=O)n(C)c(=O)c2[nH]cnc21 [IBMX, 3-isobutyl-1-methylxanthine] | – | – | – | – | – | – | – | – | – | – | – | – | – | – | – | – | – | could not be increased; also recorded: could not be elevated |
